We go through five compounds from patent publication US20130004481A1, “ANTICANCER THERAPY” (BOEHRINGER INGELHEIM INTERNATIONAL GMBH, priority 2011, published 2013).

T1 sequence (Q6DE08 60-361): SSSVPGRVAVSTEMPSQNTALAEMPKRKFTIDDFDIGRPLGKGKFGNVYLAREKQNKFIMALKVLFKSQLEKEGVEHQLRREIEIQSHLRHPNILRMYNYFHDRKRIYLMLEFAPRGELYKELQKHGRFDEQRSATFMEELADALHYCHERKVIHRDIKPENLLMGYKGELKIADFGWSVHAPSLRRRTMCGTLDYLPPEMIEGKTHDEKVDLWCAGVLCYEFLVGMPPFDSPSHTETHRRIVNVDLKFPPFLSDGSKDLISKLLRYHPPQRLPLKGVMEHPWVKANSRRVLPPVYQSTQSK
T1 sequence (O13024 790-847 partner limits assumed): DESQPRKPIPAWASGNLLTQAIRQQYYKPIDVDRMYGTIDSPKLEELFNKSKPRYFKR

This test addresses T1, wild type (wt)-Xenopus laevis Aurora B/INCENP complex (Xenopus laevis, UniProt Q6DE08).
T1 construct: Purified (wt)-Xenopus laevis Aurora B^60-361/INCENP^790-847 complex was stored at −80° C; GST (cleaved yes); made in house; host or cells: E. coli BL21(DE3) with pUBS520 helper plasmid
In words: Radioactive kinase assay using wt Xenopus laevis Aurora B/INCENP complex. Particulars: 100 μM ATP. In kind it is biochemical.
Procedure: Radioactive Kinase Assay Using a Wild Type (wt)-Xenopus laevis Aurora B/INCENP Complex:
The kinase assays are run in the presence of 100 μM ATP using 10 μM of a substrate peptide. pAUB-IN847 was used to transform the E. coli strain BL21(DE3) containing the pUBS520 helper plasmid. Both proteins and their mutants are expressed and purified under essentially identical conditions. Protein expression is induced with 0.3 mM IPTG at an OD600 of 0.45-0.7. Expression is then continued for about 12-16 hours at 23-25° C. with agitation. […] 20-30 ml lysis buffer are used per liter of E. coli culture. Cells are lysed by sonication, and the lysates cleared by centrifugation at 12000 rpm for 45-60 min on a JA20 rotor. The supernatants are incubated with 300 μl of GST Sepharose Fast Flow (Amersham Biosciences) per liter of bacterial culture. The resin is first washed with PBS buffer and finally equilibrated with lysis buffer. After a 4-5 hour agitation at 4° C., the beads are washed with 30 volumes of lysis buffer, and then equilibrated with 30 volumes of cleavage buffer (50 mM Tris pH 7.6, 150 mM NaCl, 1 mM DTT, 1 mM EDTA). To cleave the GST from Aurora B, 10 units of Prescission protease (Amersham Biosciences) per milligram of substrate are added and the incubation is protracted for 16 hours at 4° C. The supernatant, which contains the cleaved product, is collected and loaded onto a 6 ml Resource Q column (Amersham Biosciences) equilibrated with Ion Exchange buffer (50 mM Tris pH 7.6, 150 mM NaCl, 1 mM DTT, 1 mM EDTA). The Aurora B/INCENP complex is collected in the flow through of the column. The flow-through of the Resource Q column is concentrated and loaded onto a Superdex 200 size-exclusion chromatography (SEC) column equilibrated with SEC buffer (Tris HCl 10 mM pH 7.6, NaCl 150 mM, DTT 1 mM, EDTA 1 mM). […] The final yield is about 1-2 mg of pure complex per liter of bacteria.
Assay conditions: Enzyme activity was assayed in the presence or absence of serial inhibitor dilutions.
Data analysis: Inhibitor concentrations were transformed to logarithmic values and the raw data were normalized. These normalized values were used to calculate the IC50 values. […] Each microtiter plate contained internal controls, such as blank, maximum reaction and historical reference compound.
The IC50 is the point on the concentration scale where inhibition reaches its midpoint. Turning to `CCNC(=O)C#Cc1ccc2c(c1)NC(=O)/C2=C(\Nc1ccc(N2CCN(C)CC2)cc1)c1ccccc1` [Compound 1, N-ethyl-3-[3-[[4-(4-methylpiperazin-1-yl)anilino]-phenylmethylidene]-2-oxo-1H-indol-6-yl]prop-2-ynamide], the concentration for half-maximal inhibition (IC50) was found to be 2 nM.

In the case of `CCNC(=O)C#Cc1ccc2c(c1)NC(=O)/C2=C(\Nc1ccc(CN(C)C)cc1)c1ccccc1` [Compound 6, 3-[3-[[4-(dimethylaminomethyl)anilino]-phenylmethylidene]-2-oxo-1H-indol-6-yl]-N-ethylprop-2-ynamide], the IC50 came out at 3 nM.

For the compound `O=C(C#Cc1ccc2c(c1)NC(=O)/C2=C(\Nc1ccc(CN2CCCC2)cc1)c1ccccc1)NCC(F)F` [Compound 3, N-(2,2-difluoroethyl)-3-[2-oxo-3-[phenyl-[4-(pyrrolidin-1-ylmethyl)anilino]methylidene]-1H-indol-6-yl]prop-2-ynamide], the IC50 came to 4 nM.

With `CN(C)Cc1ccc(N/C(=C2\C(=O)Nc3cc(C#CC(=O)NCC(F)F)ccc32)c2ccccc2)cc1` [Compound 2, N-(2,2-difluoroethyl)-3-[3-[[4-(dimethylaminomethyl)anilino]-phenylmethylidene]-2-oxo-1H-indol-6-yl]prop-2-ynamide], the IC50 was determined as 7 nM.

Regarding `O=C(C#Cc1ccc2c(c1)NC(=O)/C2=C(\Nc1ccc(CN2CCCC2)cc1)c1ccccc1)NCCF` [Compound 4, N-(2-fluoroethyl)-3-[2-oxo-3-[phenyl-[4-(pyrrolidin-1-ylmethyl)anilino]methylidene]-1H-indol-6-yl]prop-2-ynamide], the IC50 amounted to 5 nM.
